SMILES strings stand for the structures.

In this assay the target is T1, ITK (Homo sapiens, UniProt Q08881).
T1 construct: Compounds provided herein were assayed in vitro with ITK HiBit cell lines; endogenous in cells; host or cells: Molt4 (ATCC CRL-1552 [sic]), monoclonal clone 1C10
T1 sequence (Q08881 1-620): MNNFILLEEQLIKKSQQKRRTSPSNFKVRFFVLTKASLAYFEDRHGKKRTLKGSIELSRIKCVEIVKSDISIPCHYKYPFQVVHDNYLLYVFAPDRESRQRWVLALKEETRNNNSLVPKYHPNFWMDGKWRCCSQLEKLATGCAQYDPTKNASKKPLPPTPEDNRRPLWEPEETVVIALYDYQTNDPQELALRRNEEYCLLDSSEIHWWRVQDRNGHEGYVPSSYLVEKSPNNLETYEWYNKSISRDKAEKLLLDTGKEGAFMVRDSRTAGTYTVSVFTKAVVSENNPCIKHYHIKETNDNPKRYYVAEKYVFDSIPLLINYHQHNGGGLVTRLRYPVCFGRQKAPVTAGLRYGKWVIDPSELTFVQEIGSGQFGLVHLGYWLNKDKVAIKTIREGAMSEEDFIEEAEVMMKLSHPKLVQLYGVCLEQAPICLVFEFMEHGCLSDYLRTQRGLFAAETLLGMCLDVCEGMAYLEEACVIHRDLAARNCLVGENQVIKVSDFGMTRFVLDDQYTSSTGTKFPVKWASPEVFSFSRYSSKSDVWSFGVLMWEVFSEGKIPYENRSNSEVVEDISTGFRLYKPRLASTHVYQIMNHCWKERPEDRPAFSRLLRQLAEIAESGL
Put plainly: ITK Degradation HiBiT Assay. The class given is cell-based. Conditions: C-terminal HiBiT-tagged Molt4 cells, 4 hrs incubation; for Dmax: MOLT-4, read-out: HiBiT DMax (%). Here is the method:
Compounds provided herein were assayed in vitro with ITK HiBit cell lines. Compound dilution series (11-point, 5 fold dilutions in DMSO, columns 2-12 with replicate in rows A/B, C/D, E/F, G, H at 2000× the final required concentrations were prepared in 96 well plate (Falcon, cat. no. 353077). Column 1, rows A-H were control DMSO. The 2000× solutions ranged from 2 mM to 1.024 nM (final assay concentration range 1 μM to […]). The 2000× solutions were added to cells in […], for a final DMSO concentration of 0.5% and final assay compound concentration of 1×. For the cells, C-terminal HiBiT-tagged Molt4 cells (ATCC CRL-1552, monoclonal cell line clone 1C10) were plated at 1×10^6 cells/mL, 100 μL/well ([…]) in complete RPMI (10% FBS, 1% L-glutamine). The cells were incubated with compound 32 and compound 30 for 4 hrs at 32° C./6% CO2.
Following incubation, 100 μL of complete Nano-Glo HiBiT Lytic Detection Reagent (Nano-Glo HiBiT Lytic Buffer with 1:50 Nano-Glo HiBiT Lytic Substrate and 1:100 LgBiT Protein; Promega cat. no. N3O40) was added. Cells were further incubated for 10 min at room temperature (RT). Luminescence units (LU) were read on an EnVision plate reader (Perkin Elmer, 0.1 sec per well). Percent ITK remaining per sample was calculated as follows: […]
Using Graphpad Prism, % ITK remaining values were plotted as a function of compound concentration. To determine DC50 and Dmax values, resulting curves were fit to the Prism curve-fitting equation “log(inhibitor) vs response−Variable slope (four parameters)” (reported best fit value IC50 used as DC50). ITK was measured with antibody-based MSD (Meso-Scale Discovery) assays shown below.
A general note: With HiBiT, luminescence reflects the tagged protein that the partner subunit can reach.

With `CN(C(=O)C1CCN(CC2CCN(c3ccc(C4CCC(=O)NC4=O)cn3)CC2)CC1)c1ccc2cc(-c3n[nH]c4c3C[C@@H]3C(F)(F)[C@]3(C)C4)[nH]c2c1` (stereo partly drawn) [Compound 5, N-(2-((4aS,5aR)-5,5-difluoro-5a-methyl-1,4,4a,5,5a,6-hexahydrocyclopropa[f]indazol-3-yl)-1H-indol-6-yl)-1-((1-(5-(2,6-dioxopiperidin-3-yl)pyridin-2-yl)piperidin-4-yl)methyl)-N-methylpiperidine-4-carboxamide], the Dmax came out at 85%.

With `C[C@@]12Cc3[nH]nc(C(=O)Nc4cnn(C5CN(CC6CCN(c7ccc(C8CCC(=O)NC8=O)cn7)CC6)C5)c4)c3C[C@@H]1C2(F)F` (stereo partly drawn) [Compound 12, (4aS,5aR)—N-(1-(1-((1-(5-(2,6-dioxopiperidin-3-yl)pyridin-2-yl)piperidin-4-yl)methyl)azetidin-3-yl)-1H-pyrazol-4-yl)-5,5-difluoro-5a-methyl-1,4,4a,5,5a,6-hexahydrocyclopropa[f]indazole-3-carboxamide], the half-maximal degradation concentration (DC50) stood at 0.25 nM and the greatest degradation seen (Dmax) worked out at 85%.

As for `C[C@@]12Cc3[nH]nc(C(=O)Nc4cnn(C5CN(C(=O)C6CCN(c7ccc(C8CCC(=O)NC8=O)cn7)CC6)C5)c4)c3C[C@@H]1C2(F)F` (stereo partly drawn) [Compound 13, (4aS,5aR)—N-(1-(1-(1-(5-(2,6-dioxopiperidin-3-yl)pyridin-2-yl)piperidine-4-carbonyl)azetidin-3-yl)-1H-pyrazol-4-yl)-5,5-difluoro-5a-methyl-1,4,4a,5,5a,6-hexahydrocyclopropa[f]indazole-3-carboxamide], it took 1.3 nM to reach half-maximal degradation (DC50) and the greatest degradation seen (Dmax) worked out at 91%.

Turning to `C[C@@]12Cc3[nH]nc(C(=O)Nc4cnn(C5CN(C(=O)C6CN(c7ccc(C8CCC(=O)NC8=O)cn7)C6)C5)c4)c3C[C@@H]1C2(F)F` (stereo partly drawn) [Compound 14, (4aS,5aR)—N-(1-(1-(1-(5-(2,6-dioxopiperidin-3-yl)pyridin-2-yl)azetidine-3-carbonyl)azetidin-3-yl)-1H-pyrazol-4-yl)-5,5-difluoro-5a-methyl-1,4,4a,5,5a,6-hexahydrocyclopropa[f]indazole-3-carboxamide], the Dmax worked out at 78%.

`C[C@@]12Cc3[nH]nc(-c4cc5ccc(N6CCC7(CCN(C(=O)C8CCN(c9ccc(C%10CCC(=O)NC%10=O)cn9)CC8)CC7)C6=O)cc5[nH]4)c3C[C@@H]1C2(F)F` (stereo partly drawn) [Compound 16, 3-(6-(4-(2-(2-((4aS,5aR)-5,5-difluoro-5a-methyl-1,4,4a,5,5a,6-hexahydrocyclopropa[f]indazol-3-yl)-1H-indol-6-yl)-1-oxo-2,8-diazaspiro[4.5]decane-8-carbonyl)piperidin-1-yl)pyridin-3-yl)piperidine-2,6-dione]: the Dmax was 90%.

In the case of `C[C@@]12Cc3[nH]nc(-c4cc5ccc(N6CCC7(CCN(CCC8CCN(c9ccc(C%10CCC(=O)NC%10=O)cn9)CC8)CC7)C6=O)cc5[nH]4)c3C[C@@H]1C2(F)F` (stereo partly drawn) [Compound 17, 3-(6-(4-(2-(2-(2-((4aS,5aR)-5,5-difluoro-5a-methyl-1,4,4a,5,5a,6-hexahydrocyclopropa[f]indazol-3-yl)-1H-indol-6-yl)-1-oxo-2,8-diazaspiro[4.5]decan-8-yl)ethyl)piperidin-1-yl)pyridin-3-yl)piperidine-2,6-dione], the 50% degradation concentration (DC50) is below 0.01 nM and the Dmax was found to be 89%.

In the case of `CN(C(=O)c1ccc2cc(-c3n[nH]c4c3CCC(C)(C)C4)[nH]c2c1)C1CCN(CC2CCN(c3ccc(C4CCC(=O)NC4=O)cn3)CC2)CC1` (stereo not drawn) [Compound 18, 2-(6,6-dimethyl-4,5,6,7-tetrahydro-1H-indazol-3-yl)-N-(1-((1-(5-(2,6-dioxopiperidin-3-yl)pyridin-2-yl)piperidin-4-yl)methyl)piperidin-4-yl)-N-methyl-1H-indole-6-carboxamide], the half-maximal degradation concentration (DC50) amounted to 0.68 nM and the Dmax was 87%.

In the case of `CC1(C)CCc2c(-c3cc4ccc(C(=O)N5CCC(CC6CCN(c7ccc(C8CCC(=O)NC8=O)cn7)CC6)CC5)cc4[nH]3)n[nH]c2C1` (stereo not drawn) [Compound 19, 3-(6-(4-((1-(2-(6,6-dimethyl-4,5,6,7-tetrahydro-1H-indazol-3-yl)-1H-indole-6-carbonyl)piperidin-4-yl)methyl)piperidin-1-yl)pyridin-3-yl)piperidine-2,6-dione], the Dmax came out at 73%.

As to `C[C@@]12Cc3[nH]nc(-c4cc5ccc(C(=O)N6CCN(CC7CCN(c8ccc(C9CCC(=O)NC9=O)cn8)CC7)CC6)cc5[nH]4)c3C[C@@H]1C2(F)F` (stereo partly drawn) [Compound 20, 3-(6-(4-((4-(2-((4aS,5aR)-5,5-difluoro-5a-methyl-1,4,4a,5,5a,6-hexahydrocyclopropa[f]indazol-3-yl)-1H-indole-6-carbonyl)piperazin-1-yl)methyl)piperidin-1-yl)pyridin-3-yl)piperidine-2,6-dione], the 50% degradation concentration (DC50) is below 0.001 nM and the greatest degradation seen (Dmax) turned out to be 83%.

Consider `C[C@@]12Cc3[nH]nc(C(=O)Nc4cnn([C@H](c5ccccc5)C5CN(C(=O)C6CN(c7ccc(C8CCC(=O)NC8=O)cn7)C6)C5)c4)c3C[C@@H]1C2(F)F` (stereo partly drawn) [Compound 21, (4aS,5aR)—N-(1-((1S)-(1-(1-(5-(2,6-dioxopiperidin-3-yl)pyridin-2-yl)azetidine-3-carbonyl)azetidin-3-yl)(phenyl)methyl)-1H-pyrazol-4-yl)-5,5-difluoro-5a-methyl-1,4,4a,5,5a,6-hexahydrocyclopropa[f]indazole-3-carboxamide], for which the DC50 is below 0.01 nM and the Dmax came to 83%.

Consider `CN(C(=O)CCC1CCN(c2ccc(C3CCC(=O)NC3=O)cn2)C1)c1ccc2cc(-c3n[nH]c4c3C[C@@H]3C(F)(F)[C@]3(C)C4)[nH]c2c1` (stereo partly drawn) [Compound 25, N-(2-((4aS,5aR)-5,5-difluoro-5a-methyl-1,4,4a,5,5a,6-hexahydrocyclopropa[f]indazol-3-yl)-1H-indol-6-yl)-3-(1-(5-(2,6-dioxopiperidin-3-yl)pyridin-2-yl)pyrrolidin-3-yl)-N-methylpropanamide], for which the greatest degradation seen (Dmax) was found to be 48%.

For `CN(C(=O)C1CCN(C(=O)c2ccc3cc(-c4n[nH]c5c4CCC(C)(C)C5)[nH]c3c2)CC1)C1CCN(c2ccc(C3CCC(=O)NC3=O)cn2)CC1` (stereo not drawn) [Compound 33, 1-(2-(6,6-dimethyl-4,5,6,7-tetrahydro-1H-indazol-3-yl)-1H-indole-6-carbonyl)-N-(1-(5-(2,6-dioxopiperidin-3-yl)pyridin-2-yl)piperidin-4-yl)-N-methylpiperidine-4-carboxamide], it took 0.04 nM to reach half-maximal degradation (DC50) and the Dmax stood at 80%.

On to `CC1(C)CCc2c(-c3cc4ccc(C(=O)N5CCN(CCC#Cc6ccc(C7CCC(=O)NC7=O)cc6)CC5)cc4[nH]3)n[nH]c2C1` (stereo not drawn) [Compound 34, 3-(4-(4-(4-(2-(6,6-dimethyl-4,5,6,7-tetrahydro-1H-indazol-3-yl)-1H-indole-6-carbonyl)piperazin-1-yl)but-1-yn-1-yl)phenyl)piperidine-2,6-dione], for which half-maximal degradation (DC50) was put at 2.6 nM and the Dmax was 60%.

Consider `CC1(C)CCc2c(-c3cc4ccc(C(=O)N5CCN(CCCCc6ccc(C7CCC(=O)NC7=O)cc6)CC5)cc4[nH]3)n[nH]c2C1` (stereo not drawn) [Compound 40, 3-(4-(4-(4-(2-(6,6-dimethyl-4,5,6,7-tetrahydro-1H-indazol-3-yl)-1H-indole-6-carbonyl)piperazin-1-yl)butyl)phenyl)piperidine-2,6-dione], for which half-maximal degradation (DC50) was put at 15 nM and the Dmax was found to be 68%.

For the compound `CC1(C)CCc2c(-c3cc4ccc(C(=O)N5CCC(CN6CCN(c7cccc(C8CCC(=O)NC8=O)n7)CC6)CC5)cc4[nH]3)n[nH]c2C1` (stereo not drawn) [Compound 41], the greatest degradation seen (Dmax) stood at 27%.

One may read the Dmax as the largest share of the target that was removed. One may read the DC50 as the concentration giving 50% degradation. Lower therefore signals degradation at low concentration.

Source of the values: US20230158151A1 (NURIX THERAPEUTICS, INC., priority 2021, published 2023).
